Results published in patent US7795242B2, “Methods and compositions for immunomodulation” (The Brigham and Women's Hospital, Inc., priority 2003, dated 2010).

Columns and labels:
[1] = molecular target: T1, CD1d (Homo sapiens, UniProt P15813); conditions: Im et al., J Biol Chem., 279:299-310, 2004; cited from earlier work
[2] = tested on: polyclonal lymphocytes; experiment: Proliferative response of polyclonal lymphocytes and T cell clones; type: cell-based, human; conditions: data not shown
Description: To determine whether PPBF non-selectively activated polyclonal lymphocyte populations or selectively activated antigen-specific clones present at low precursor frequency in vivo, polyclonal lymphocytes were tested for their proliferative response to PPBF.

[3] = tested on: T cell line IL1AP; experiment: IL-2 release by PPBF-reactive T cell line IL1AP with DC as APC (HT-2 bioassay); type: cell-based, human; conditions: IL-2 measured 24 h after stimulation; FIG. 7A
Description: Because αGalCer was previously known to function as a potent activator of CD1d-restricted T cell clones known as NK T cells, we sought to determine whether PPBF-reactive T cells and αGalCer-reactive T cells cross react. The PPBF-reactive T cell line IL1AP and the αGalCer-reactive T cell clone J3N.5 were each stimulated with αGalCer and PPBF using DC as APC. IL-2 release was measured 24 h after stimulation. The IL-2 concentration in 50 μl of culture supernatants, harvested 24 hours after T cell stimulation, was determined by adding 10^4 IL-2 starved HT-2 cells in […] medium, and a 6 h pulse after a 24 h incubation.

[4] = tested on: IL1AP T cells; experiment: Proliferative response of IL1AP T cells stimulated with antigen and dendritic cells ([3H]-thymidine incorporation); type: cell-based, human; conditions: for stimulation (proliferation) of IL1AP T cells: DC as APC, FIG. 1A, 2B, 6E, 7A
Description: The antigens provided herein were identified with T-cell activation assays performed using purified fractions in order to determine their relative ability to activate T-cells. These assays were carried out essentially as described in U.S. Pat. Nos. 5,679,347; 5,853,737; and 6,238,676, and in Rosat et al. J. Immunol. 162:366-371, 1999. Other procedures are well-known in the art.
To generate CD1-restricted T cells that recognize novel antigens, we stimulated human peripheral blood lymphocytes using a method that reduces the outgrowth of MHC-restricted T cells and favors the detection of CD1-restricted T cells. This involves the repeated stimulation of lymphocytes with lipid antigens with monocyte-derived dendritic cells (DC) from donors that differ in their MHC protein expression, so that T cells responding to DC with a given MHC class I or II molecule will not be repeatedly stimulated and therefore […] in T cell lines produced after many rounds of stimulation. DCs were prepared from the peripheral blood of healthy donors by centrifugation over Ficoll-Hypaque, adherence of the mononuclear cells to plastic tissue culture flasks, culture of adherent cells with 300 U/ml GM-CSF and 200 U/ml IL-4 for 3 days, followed by irradiation (3300 R).
DC and T cells were cultured at a 1:5 ratio in the presence of 1 μg/ml LKKRRL mixture to yield T cell lines. T cells lines were used to generate clones by culturing T cells at approximately 1 cell per well with phytohemagglutinin, peripheral blood mononuclear cells, transformed B cell lines and 2 nM IL-2. This protocol yielded a polyclonal T cell line IL1AP and several clones derived there from, which are named IL1AP.15, IL1AP.31.
To assay the proliferative responses of IL1AP T cells, 5*10^4 Polyclonal IL1AP T cells were stimulated with 3*10^4 DC and LKKRRL mixture (FIG. 1A). […] C1R cells transfected with the vector pSRα-NEO, containing the cDNAs encoding human CD1a, CD1b, CD1c, CD1d, or no insert (C1R mock) were used as alternative APC for the stimulation of polyclonal T cells with LKKRRL mixture (FIG. 1C). […]

[5] = molecular target: T1, CD1d; experiment: Competition with αGalCer-mediated NK T cell activation on plate-bound recombinant CD1d; type: cell-based; conditions: FIG. 8; for block of αGalCer-mediated NK T activation: compound added in excess to plate-bound recombinant CD1d
Excerpt: Next, to determine whether PPBF could compete with αGalCer-mediated NK T cell responses, we used an in vitro assay of PPBF added to recombinant CD1d proteins bound to a plate.

[6] = tested on: J.RT3.ABd cells; experiment: IL-2 release by J.RT3 cells transfected with IL1AP TCR α and β chains (J.RT3.ABd); type: cell-based; conditions: FIG. 11A
Description: We transfected the full-length TCR α and β chains from IL1AP cells into J.RT3 cells to generate a TCR-expressing reporter cell line (J.RT3.ABd). […] To determine whether PPBF could activate through intact CD3 complexes that were reconstituted by transfection of a TCR with irrelevant antigen specificity, J.RT3-T3.5 cells transfected with the TCR α and β chains of the CD8-2 cell line (J.RT3-CD8-2) that recognizes the mycobacterial lipopeptides DDM were tested for IL-2 release upon stimulation with DDM or PPBF.

O=S(=O)(O)c1ccc2cc(Nc3ccccc3)ccc2c1 [2,6-anilonapthalene sulfonic acid]
binding to CD1d [1]: has been shown to bind CD1d

phytohemagglutinin [reference compound]
activation of polyclonal T cells and T cell clones (proliferative response) [2]: activated by the mitogen phytohemagglutinin

CCCCCCCCCCCCCCCCCCCCCCCCCC(=O)N[C@@H](CO[C@H]1O[C@H](CO)[C@H](O)[C@H](O)[C@H]1O)[C@H](O)[C@H](O)CCCCCCCCCCCCCC [αGalCer, α-galactosyl ceramide]
recognition by IL1AP T cells (IL-2 release) [3]: did not recognize αGalCer

Cc1c(C)c(S(=O)(=O)Oc2ccccc2)c(C)c2c1OC(C)(C)C2 [PPBF, phenyl-2,2,4,6,7-pentamethyldihydrobenzofuran-5-sulfonyl]
stimulation (proliferation) of IL1AP T cells [4]: Only the T cell line IL1AP and clones derived therefrom were activated by PPBF
stimulation (proliferation) of IL1AP T cells ([4]; listed as Synthetic PPBF): potently stimulate
degree and titer of inhibition of αGalCer-mediated NK T activation compared with 2,6-ANS [5]: comparable to that of 2,6-anilonapthalene sulfonic acid
block of αGalCer-mediated NK T activation [5]: substantially block αGalCer-mediated NK T activation in a dose-dependent manner
IL-2 production by J.RT3.ABd cells upon stimulation [6]: conferred the ability to produce IL-2 upon stimulation with PPBF

3-methyl-PPBF
capacity to stimulate IL1AP T cell proliferation relative to PPBF ([4]; FIG. 6E): stimulated T cells more potently than PPBF
degree and titer of inhibition of αGalCer-mediated NK T activation compared with 2,6-ANS [5]: comparable to that of 2,6-anilonapthalene sulfonic acid
block of αGalCer-mediated NK T activation [5]: substantially block αGalCer-mediated NK T activation in a dose-dependent manner
